Data taken from ChEMBL document CHEMBL1201862, “PubChem BioAssay data set” (2004).
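Assay format: 96-well plates, 48-hour exposure. At the GI50, growth is halved.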 The source made the active and inactive calls. Cut-off read from the data, not from the text of the source: active = GI50 up to about 1.1 µM and inactive = higher.

Key:
Assay in all cases: growth of human tumour cells (NCI), 48 h
[1] = system: HOP-92
[2] = system: NCI-H522
[3] = system: CCRF-CEM
[4] = system: OVCAR-4
[5] = system: ACHN
[6] = system: KM12
[7] = system: U-251
[8] = system: OVCAR-8
[9] = system: SNB-75
[10] = system: COLO 205
[11] = system: SF-268
[12] = system: SF-539
[13] = system: EKVX
[14] = system: M14
[15] = system: RXF 393
[16] = system: UACC-62
[17] = system: SR

Measured: GI50

CC1=C(C(=O)Nc2cccc(C(F)(F)F)c2)C(c2ccc(O)cc2)C(C(=O)Nc2cccc(C(F)(F)F)c2)=C(C)N1
inactive: [1] 11.5 µM | [2] 15.5 µM | [3] 13.6 µM | [4] 14.8 µM | [5] 20.3 µM | [6] 15.8 µM | [7] 17.1 µM | [8] 23.2 µM | [9] 17.2 µM | [10] 13.9 µM | [11] 26.5 µM | [12] 26.5 µM | [13] 18.1 µM | [14] 14.9 µM | [15] 10.1 µM

Oc1nc(CC(O)c2ccc(Cl)c(Cl)c2)cc(-c2ccccc2)n1 (configuration not stated)
inactive: [1] 82.8 µM | [2] 22.6 µM | [3] 30.1 µM | [4] 68.4 µM | [5] > 100 µM | [6] 69.3 µM | [7] > 100 µM | [8] > 100 µM | [9] 33 µM | [10] 17.3 µM | [11] 80.7 µM | [12] > 100 µM | [13] 44.9 µM | [16] 45.5 µM | [14] 91 µM | [15] 41.1 µM

CCN1CCC(O)(/C=C/c2ccccc2)C(C(=O)/C=C/c2ccccc2)C1 (configuration not stated)
inactive: [1] 2.64 µM | [2] 1.73 µM | [4] 3.27 µM | [5] 1.72 µM | [6] 1.8 µM | [7] 2.15 µM | [8] 1.89 µM | [9] 6.4 µM | [10] 1.77 µM | [11] 2.54 µM | [12] 1.91 µM | [13] 3.33 µM | [16] 1.71 µM | [14] 2.09 µM | [15] 1.67 µM

COC(=O)c1ccc(/C=C/S(=O)(=O)c2ccccc2)cc1
inactive: [1] > 100 µM | [2] 83.9 µM | [3] > 100 µM | [4] > 100 µM | [5] > 100 µM | [6] > 100 µM | [7] > 100 µM | [8] > 100 µM | [9] 67.6 µM | [10] > 100 µM | [11] > 100 µM | [12] > 100 µM | [13] > 100 µM | [16] > 100 µM | [14] > 100 µM | [15] > 100 µM

O=C1C(=O)C2(CC1S(=O)(=O)c1ccccc1)c1ccccc1-c1ccccc12 (configuration not stated)
inactive: [2] 22.5 µM | [3] 24.7 µM | [4] 48.9 µM | [5] 28.6 µM | [6] 19.2 µM | [7] 18.6 µM | [8] 17.9 µM | [9] 37.3 µM | [10] 12.7 µM | [11] 27.4 µM | [13] 28.8 µM | [16] 16.6 µM | [14] 13.9 µM | [17] 24 µM | [15] 18.7 µM

Cc1ccc(C2[C@H]3C(=O)N(c4ccc(Cc5ccc(N6C(=O)[C@@H]7ON(c8ccccc8)C(c8ccc(C)cc8)[C@@H]7C6=O)cc5)cc4)C(=O)[C@H]3ON2c2ccccc2)cc1 (some centres not stated)
inactive: [1] > 100 µM | [3] > 100 µM | [4] > 100 µM | [5] > 100 µM | [6] > 100 µM | [7] > 100 µM | [9] 99.8 µM | [10] > 100 µM | [11] > 100 µM | [12] > 100 µM | [16] > 100 µM | [14] 91.6 µM | [15] > 100 µM

O=C1NC(=O)C(C(=O)C(=O)Nc2cc(Cl)ccc2Cl)C(=O)N1
inactive: [1] 91.8 µM | [2] > 100 µM | [3] > 100 µM | [4] > 100 µM | [5] > 100 µM | [6] > 100 µM | [7] > 100 µM | [8] > 100 µM | [9] 83.2 µM | [10] > 100 µM | [11] > 100 µM | [12] > 100 µM | [13] > 100 µM | [16] > 100 µM | [14] > 100 µM | [15] > 100 µM

O=C(Nc1ccccc1SC(/C=C/NNC1=NN=C(c2ccccc2)C(c2ccccc2)N1)c1ccccc1)c1ccc(Cl)cc1Cl (configuration not stated)
inactive: [2] > 100 µM | [3] 48.8 µM | [4] 35.9 µM | [5] 82.8 µM | [6] 38.1 µM | [7] 25.6 µM | [8] 74.5 µM | [9] 52.4 µM | [10] > 100 µM | [11] 35.6 µM | [12] 23.3 µM | [13] 37.8 µM | [16] 36.8 µM | [15] 40.7 µM

CC1C=C[C@H](Sc2ccccc2)CC[C@@]1(C)O (some centres not stated)
inactive: [1] 40.5 µM | [3] 34.7 µM | [5] > 100 µM | [7] > 100 µM | [8] > 100 µM | [9] 97.1 µM | [10] > 100 µM | [12] > 100 µM | [13] > 100 µM | [16] 86.1 µM | [14] > 100 µM | [15] 76.2 µM
